Legend:
Type in all cases: biochemical
K-Ras G12S = target: T1, K-Ras G12S (Homo sapiens, UniProt P01116, G12S); test: HTRF resonance energy transfer assay, K-Ras G12S / SOS1 interaction; conditions: HTRF assay of Example 5; read-out: IC50 against K-Ras G12S
T1 construct: made in house; host or cells: E. coli BL21 (DE3)
Description: (§1) This assay can be also used to assess a selective inhibition or reduction of signaling output of a mutant Ras protein relative to a wildtype, or relative to a different mutant Ras protein. For example, the equilibrium interaction of wildtype Kras or K-Ras mutant (e.g., wildtype or a mutant thereof) with SOS1 (e.g., hSOS1) can be assessed as a proxy or an indication for a subject compound's ability to bind and inhibit Ras protein. HTRF assay detects from (i) a fluorescence resonance energy transfer (FRET) donor (e.g., antiGST-Europium) that is bound to GST-tagged K-Ras mutant to (ii) a FRET acceptor (e.g., anti-6His-XL665) bound to a His-tagged hSOS1.
(§2) The assay buffer can contain˜5 mM HEPES pH 7.4, ˜150 mM NaCl, ˜ 1 mM DTT, 0.05% BSA and 0.0025%(v/v) Igepal. A Ras working solution is prepared in an assay buffer containing typically a suitable amount of the protein construct (e.g., GST-tagged K-Ras mutant) and the FRET donor (e.g., antiGST-Eu(K) from Cisbio, France). A SOS1 working solution is prepared in an assay buffer containing suitable amount of the protein construct (e.g., His-hSOS1) and the FRET acceptor (e.g., anti-6His-XL665 from Cisbio, France). A suitable amount of the protein construct will depend on the range of activity or range of IC50 values being detected or under investigation. For detecting IC50 within a range of 500 nM, the protein constructs of the same range of molarity can be utilized.
(§3) A fixed volume of DMSO with or without test compound is transferred into a 384-well plate. Ras working solution is added to all wells of the test plate. SOS1 working solution is added to all wells except for those that are subsequently filled the inhibitor control solution. Upon incubation for about 10 minutes or longer, the fluorescence is measured with a M1000Pro plate reader (Tecan) using HTRF detection (excitation 337 nm, emission 1: 620 nm, emission 2: 665 nm). Compounds are tested in duplicates at different concentrations (for example, 10 μM, 2.5 μM, 0.63 μM, 0.16 μM, 0.04 μM, 0.01 μM test compound). The ratiometric data (i.e., emission 2 divided by emission 1) is used to calculate IC50 values against Ras using GraphPad Prism (GraphPad software). Following this general procedure, samples were tested with or without a subject compound disclosed herein including compounds exemplified in Table 1 to assess their abilities to inhibit a K-Ras mutant relative to another mutant or WT. Signaling output measured in terms of IC50 values can be obtained, a ratio of IC50 against one mutant relative to another mutant can be calculated. For instance, a selective reduction of K-Ras G12D signaling output can be evidenced by a ratio greater than one. In particular, a selective reduction of K-Ras G12D signaling relative to K-Ras WT signaling is evidenced as the ratio of IC50 (against K-Ras WT) to IC50 (against K-Ras G12D) is greater than 1.

K-Ras G12V = target: T2, K-Ras G12V (Homo sapiens, UniProt P01116, G12V); test: HTRF resonance energy transfer assay, K-Ras G12V / SOS1 interaction; conditions: HTRF assay of Example 5; read-out: IC50 against K-Ras G12V
T2 construct: made in house; host or cells: E. coli BL21 (DE3)
Description: as §1, §2, §3

K-Ras WT = target: T3, K-Ras WT (Homo sapiens, UniProt P01116); test: HTRF resonance energy transfer assay, K-Ras WT / SOS1 interaction; conditions: HTRF assay of Example 5; read-out: IC50 against K-Ras WT
T3 construct: made in house; host or cells: E. coli BL21 (DE3)
Description: as §1, §2, §3

T3 sequence (P01116 1-188 isoform P01116-2): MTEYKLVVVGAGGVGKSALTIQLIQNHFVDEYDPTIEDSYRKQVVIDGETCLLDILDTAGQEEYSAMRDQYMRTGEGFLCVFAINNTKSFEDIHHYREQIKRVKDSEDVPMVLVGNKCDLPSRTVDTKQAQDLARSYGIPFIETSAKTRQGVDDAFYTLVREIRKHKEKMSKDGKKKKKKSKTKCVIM
T1 sequence (P01116 1-188 isoform P01116-2 G12S): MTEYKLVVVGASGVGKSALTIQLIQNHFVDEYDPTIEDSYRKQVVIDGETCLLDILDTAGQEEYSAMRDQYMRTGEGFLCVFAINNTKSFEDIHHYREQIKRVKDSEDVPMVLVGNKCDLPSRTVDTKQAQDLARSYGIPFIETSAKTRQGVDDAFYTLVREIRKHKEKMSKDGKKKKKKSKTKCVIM
T2 sequence (P01116 1-188 isoform P01116-2 G12V): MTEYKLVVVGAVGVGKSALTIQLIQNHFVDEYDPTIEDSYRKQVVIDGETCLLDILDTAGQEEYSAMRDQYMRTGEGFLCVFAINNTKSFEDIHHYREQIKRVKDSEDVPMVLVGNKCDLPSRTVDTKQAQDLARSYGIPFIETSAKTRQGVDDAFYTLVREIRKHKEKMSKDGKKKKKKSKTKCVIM

`N#Cc1c(N)sc2c(F)ccc(-c3c(Cl)c4c5c(nc(OC[C@@]67CCCN6C[C@H](F)C7)nc5c3F)N(CC(F)F)C(c3cnco3)CO4)c12` (single isomer, unassigned) [Compound 860] gave an IC50 (K-Ras G12S) of under 100 nM, an IC50 (K-Ras G12V) of under 100 nM and an IC50 (K-Ras WT) of under 100 nM.

`N#Cc1c(N)sc2c(F)ccc(-c3c(Cl)c4c5c(nc(OC[C@@]67CCCN6C[C@H](F)C7)nc5c3F)N(CC(F)F)[C@H](CNC=O)CO4)c12` [Compound 627, N-(((5R)-9-(2-amino-3-cyano-7-fluorobenzo[b]thiophen-4-yl)-8-chloro-4-(2,2-difluoroethyl)-10-fluoro-2-(((2R,7aS)-2-fluorotetrahydro-1H-pyrrolizin-7a(5H)-yl)methoxy)-5,6-dihydro-4H-[1,4]oxazepino[5,6,7-de]quinazolin-5-yl)methyl)formamide] showed an IC50 (K-Ras G12S) of under 100 nM and an IC50 (K-Ras G12V) of under 100 nM.

For `C=C(F)C1COc2c(Cl)c(-c3ccc(F)c4sc(N)c(C#N)c34)c(F)c3nc(OC[C@@]45CCCN4C[C@H](F)C5)nc(c23)N1CC(F)F` (stereo partly drawn) [Compound 651, 2-amino-4-(8-chloro-4-(2,2-difluoroethyl)-10-fluoro-2-(((2R,7aS)-2-fluorotetrahydro-1H-pyrrolizin-7a(5H)-yl)methoxy)-5-(1-fluorovinyl)-5,6-dihydro-4H-[1,4]oxazepino[5,6,7-de]quinazolin-9-yl)-7-fluorobenzo[b]thiophene-3-carbonitrile], the IC50 (K-Ras G12V) was under 100 nM.

`N#Cc1c(N)sc2c(F)ccc(-c3c(Cl)c4c5c(nc(OC[C@@]67CCCN6C[C@H](F)C7)nc5c3F)N(CC(F)F)C(C3CCN3C(=O)C3CN3)CO4)c12` (stereo partly drawn) [Compound 666, 2-amino-4-(5-(1-(aziridine-2-carbonyl)azetidin-2-yl)-8-chloro-4-(2,2-difluoroethyl)-10-fluoro-2-(((2R,7aS)-2-fluorotetrahydro-1H-pyrrolizin-7a(5H)-yl)methoxy)-5,6-dihydro-4H-[1,4]oxazepino[5,6,7-de]quinazolin-9-yl)-7-fluorobenzo[b]thiophene-3-carbonitrile] showed an IC50 (K-Ras G12S) of under 100 nM and an IC50 (K-Ras WT) of under 100 nM.

With `N#Cc1c(N)sc2c(F)ccc(-c3c(Cl)c4c5c(nc(OC[C@@]67CCCN6C[C@H](F)C7)nc5c3F)N(CC(F)F)C(C3CN(C(=O)C5CN5)C3)CO4)c12` (stereo partly drawn) [Compound 762, 2-amino-4-(5-(1-(aziridine-2-carbonyl)azetidin-3-yl)-8-chloro-4-(2,2-difluoroethyl)-10-fluoro-2-(((2R,7aS)-2-fluorotetrahydro-1H-pyrrolizin-7a(5H)-yl)methoxy)-5,6-dihydro-4H-[1,4]oxazepino[5,6,7-de]quinazolin-9-yl)-7-fluorobenzo[b]thiophene-3-carbonitrile] the IC50 (K-Ras G12S) was under 100 nM, the IC50 (K-Ras G12V) was under 100 nM and the IC50 (K-Ras WT) was under 100 nM.

`N#Cc1c(N)sc2c(F)ccc(-c3c(Cl)c4c5c(nc(OC[C@@]67CCCN6C[C@H](F)C7)nc5c3F)N(CC(F)F)[C@@H](CNC(=O)CC3COC3)CO4)c12` [Compound 766, N-(((5S)-9-(2-amino-3-cyano-7-fluorobenzo[b]thiophen-4-yl)-8-chloro-4-(2,2-difluoroethyl)-10-fluoro-2-(((2R,7aS)-2-fluorotetrahydro-1H-pyrrolizin-7a(5H)-yl)methoxy)-5,6-dihydro-4H-[1,4]oxazepino[5,6,7-de]quinazolin-5-yl)methyl)-2-(oxetan-3-yl)acetamide] showed an IC50 (K-Ras G12S) of under 100 nM, an IC50 (K-Ras G12V) of under 100 nM and an IC50 (K-Ras WT) of under 100 nM.

Compound `N#Cc1c(N)sc2c(F)ccc(-c3c(Cl)c4c5c(nc(OC[C@@]67CCCN6C[C@H](F)C7)nc5c3F)N(CC(F)F)C(c3cncs3)CO4)c12` (stereo partly drawn) [Compound 789, 2-amino-4-(8-chloro-4-(2,2-difluoroethyl)-10-fluoro-2-(((2R,7aS)-2-fluorotetrahydro-1H-pyrrolizin-7a(5H)-yl)methoxy)-5-(thiazol-5-yl)-5,6-dihydro-4H-[1,4]oxazepino[5,6,7-de]quinazolin-9-yl)-7-fluorobenzo[b]thiophene-3-carbonitrile] has an IC50 (K-Ras G12S) of under 100 nM, an IC50 (K-Ras G12V) of under 100 nM and an IC50 (K-Ras WT) of under 100 nM.

`N#Cc1c(N)sc2c(F)ccc(-c3c(Cl)c4c5c(nc(OC[C@@]67CCCN6C[C@H](F)C7)nc5c3F)N(C3C5CC3N(C(=O)C(F)F)C5)CCO4)c12` (stereo partly drawn) [Compound 886, 2-amino-4-(8-chloro-4-(2-(2,2-difluoroacetyl)-2-azabicyclo[2.1.1]hexan-5-yl)-10-fluoro-2-(((2R,7aS)-2-fluorotetrahydro-1H-pyrrolizin-7a(5H)-yl)methoxy)-5,6-dihydro-4H-[1,4]oxazepino[5,6,7-de]quinazolin-9-yl)-7-fluorobenzo[b]thiophene-3-carbonitrile] was tested, and the IC50 (K-Ras G12S) was under 100 nM and the IC50 (K-Ras WT) was under 100 nM.

`N#Cc1c(N)sc2c(F)ccc(-c3c(Cl)c4c5c(nc(OC[C@@]67CCCN6C[C@H](F)C7)nc5c3F)N(CC(F)F)C(C3CCCN3C(=O)[C@H]3CN3)CO4)c12` (stereo partly drawn) [Compound 1007, 2-amino-4-(5-(1-((R)-aziridine-2-carbonyl)pyrrolidin-2-yl)-8-chloro-4-(2,2-difluoroethyl)-10-fluoro-2-(((2R,7aS)-2-fluorotetrahydro-1H-pyrrolizin-7a(5H)-yl)methoxy)-5,6-dihydro-4H-[1,4]oxazepino[5,6,7-de]quinazolin-9-yl)-7-fluorobenzo[b]thiophene-3-carbonitrile] was tested, and the IC50 (K-Ras WT) was under 100 nM.

For `CC(OC(F)F)C12CC(N3CCOc4c(Cl)c(-c5ccc(F)c6sc(N)c(C#N)c56)c(F)c5nc(OC[C@@]67CCCN6C[C@H](F)C7)nc3c45)(C1)C2` (stereo partly drawn) [Compound 1081, 2-amino-4-(8-chloro-4-(3-(1-(difluoromethoxy)ethyl)bicyclo[1.1.1]pentan-1-yl)-10-fluoro-2-(((2R,7aS)-2-fluorotetrahydro-1H-pyrrolizin-7a(5H)-yl)methoxy)-5,6-dihydro-4H-[1,4]oxazepino[5,6,7-de]quinazolin-9-yl)-7-fluorobenzo[b]thiophene-3-carbonitrile], the IC50 (K-Ras G12S) was under 100 nM, the IC50 (K-Ras G12V) was under 100 nM and the IC50 (K-Ras WT) was under 100 nM.

`N#Cc1c(N)sc2c(F)ccc(-c3c(Cl)c4c5c(nc(OC[C@@]67CCCN6C[C@H](F)C7)nc5c3F)N(CC(F)F)[C@H](C(F)F)CO4)c12` [Compound 1099, 2-amino-4-((S)-8-chloro-4-(2,2-difluoroethyl)-5-(difluoromethyl)-10-fluoro-2-(((2R,7aS)-2-fluorotetrahydro-1H-pyrrolizin-7a(5H)-yl)methoxy)-5,6-dihydro-4H-[1,4]oxazepino[5,6,7-de]quinazolin-9-yl)-7-fluorobenzo[b]thiophene-3-carbonitrile] showed an IC50 (K-Ras G12S) of under 100 nM, an IC50 (K-Ras G12V) of under 100 nM and an IC50 (K-Ras WT) of under 100 nM.

`C[C@@H](O)[C@@H]1COc2c(Cl)c(-c3ccc(F)c4sc(N)c(C#N)c34)c(F)c3nc(OC[C@@]45CCCN4C[C@H](F)C5)nc(c23)N1CC(F)F` [Compound 1111, 2-amino-4-((5S)-8-chloro-4-(2,2-difluoroethyl)-10-fluoro-2-(((2R,7aS)-2-fluorotetrahydro-1H-pyrrolizin-7a(5H)-yl)methoxy)-5-((R)-1-hydroxyethyl)-5,6-dihydro-4H-[1,4]oxazepino[5,6,7-de]quinazolin-9-yl)-7-fluorobenzo[b]thiophene-3-carbonitrile] showed an IC50 (K-Ras G12V) of under 100 nM.

`C[C@@H]1CC(CO)Oc2c(Cl)c(-c3ccc(F)c4sc(N)c(C#N)c34)c(F)c3nc(OC[C@@]45CCCN4C[C@H](F)C5)nc(c23)N1` (stereo partly drawn) [Compound 1210, 2-amino-4-((5R)-9-chloro-11-fluoro-2-(((2R,7aS)-2-fluorotetrahydro-1H-pyrrolizin-7a(5H)-yl)methoxy)-7-(hydroxymethyl)-5-methyl-4,5,6,7-tetrahydro-[1,5]oxazocino[4,3,2-de]quinazolin-10-yl)-7-fluorobenzo[b]thiophene-3-carbonitrile] showed an IC50 (K-Ras G12V) of under 100 nM.

— patent US12209102B2, “Heterocyclic compounds and uses thereof” (Kumquat Biosciences Inc., priority 2022, dated 2025)
